Assay results as given in patent US10464947B2 (Incyte Corporation, priority 2013, dated 2019).

These molecules were tested on KMS.12.BM cells (assay: KMS.12.BM Cell Viability Assay (Example B1)). Settings: 3 days, Cell Titer-GLO, read-out: KMS cellular IC50.
Format: cell-based, human
Description: KMS.12.BM cell line (human myeloma) was purchased from JCRB (Osaka, Japan) and maintained in RPMI with 10% FBS culture medium. To measure the cytotoxic activity of the compounds through ATP quantitation, the KMS.12.BM cells are plated in the RPMI culture medium at 5000 cells/well/per 100 μL into a 96-well polystyrene clear black tissue culture plate (Greiner-bio-one through VWR, NJ), in the presence or absence of a concentration range of test compounds. After 3 days, […] Cell Titer-GLO Luminescent (Promega, Madison, Wis.) cell culture agent is added to each well for 10 min. at room temperature to stabilize the luminescent signal. This determines the number of viable cells in culture based on quantitation of the ATP present, which signals the presence of metabolically active cells.
With `Cc1noc(C)c1-c1ccc2[nH]c(=O)n3c2c1OC(CO)C3c1ccccn1` (single isomer, unassigned) [Example 62C, 7-(3,5-Dimethylisoxazol-4-yl)-5-(hydroxymethyl)-4-pyridin-2-yl-4,5-dihydroimidazo[1,5,4-de][1,4]benzoxazin-2(1H)-one] the IC50 was under 1000 nM.

Same assay, conditions: Homo sapiens, 72 h, 3 days, Cell Titer-GLO, read-out: KMS cellular IC50
Work on `Cc1noc(C)c1-c1ccc2nc(N3CCN(c4ccccc4)CC3)n3c2c1OC[C@@H]3c1ccccn1` [Example 178, (4S)-7-(3,5-dimethylisoxazol-4-yl)-2-(4-phenylpiperazin-1-yl)-4-pyridin-2-yl-4,5-dihydroimidazo[1,5,4-de][1,4]benzoxazine] yielded an IC50 of under 1000 nM. `CC(=O)N(C)[C@@H]1CCN(c2nc3ccc(-c4c(C)noc4C)c4c3n2[C@@H](c2ccccn2)CO4)C1` [Example 222, N-{(3R)-1-[(4S)-7-(3,5-dimethylisoxazol-4-yl)-4-pyridin-2-yl-4,5-dihydroimidazo[1,5,4-de][1,4]benzoxazin-2-yl]pyrrolidin-3-yl}-N-methylacetamide] showed an IC50 of under 1000 nM. `Cc1noc(C)c1-c1ccc2[nH]c(=O)n3c2c1OCC3C1CCCCC1` (centres unmarked) [Example 17, 4-Cyclohexyl-7-(3,5-dimethylisoxazol-4-yl)-4,5-dihydroimidazo[1,5,4-de][1,4]benzoxazin-2(1H)-one] was tested, and the IC50 was under 1000 nM. `Cc1noc(C)c1-c1ccc2ncn3c2c1OCC3c1ccccc1` (centres unmarked) [Example 39, 7-(3,5-Dimethylisoxazol-4-yl)-4-phenyl-4,5-dihydroimidazo[1,5,4-de][1,4]benzoxazine] showed an IC50 of under 1000 nM. `Cc1noc(C)c1-c1ccc2nc(N3CCCC(O)C3)n3c2c1OCC3c1ccccc1` (centres unmarked) [Example 58, 1-[7-(3,5-Dimethylisoxazol-4-yl)-4-phenyl-4,5-dihydroimidazo[1,5,4-de][1,4]benzoxazin-2-yl]piperidin-3-ol] showed an IC50 of under 1000 nM. `CCS(=O)(=O)N1CCCN(c2nc3ccc(-c4c(C)noc4C)c4c3n2[C@@H](c2ccccn2)CO4)CC1` [Example 248, (4S)-7-(3,5-dimethylisoxazol-4-yl)-2-[4-(ethylsulfonyl)-1,4-diazepan-1-yl]-4-pyridin-2-yl-4,5-dihydroimidazo[1,5,4-de][1,4]benzoxazine] was tested, and the IC50 was under 1000 nM. With `Cc1noc(C)c1-c1cc(CNc2ccccc2)c2[nH]c(=O)n3c2c1OCC3c1ccccn1` (centres unmarked) [Example 262, 9-(anilinomethyl)-7-(3,5-dimethylisoxazol-4-yl)-4-pyridin-2-yl-4,5-dihydroimidazo[1,5,4-de][1,4]benzoxazin-2(1H)-one] the IC50 was under 1000 nM. Molecule `CCC(=O)N1CCCN(c2nc3ccc(-c4c(C)noc4C)c4c3n2[C@@H](c2ccccn2)CO4)CC1` [Example 246, (4S)-7-(3,5-dimethylisoxazol-4-yl)-2-(4-propionyl-1,4-diazepan-1-yl)-4-pyridin-2-yl-4,5-dihydroimidazo[1,5,4-de][1,4]benzoxazine] has an IC50 of under 1000 nM. `Cc1n[nH]cc1-c1ccc2[nH]c(=O)n3c2c1OCC3c1ccccc1` (centres unmarked) [Example 12, 7-(3-Methyl-1H-pyrazol-4-yl)-4-phenyl-4,5-dihydroimidazo[1,5,4-de][1,4]benzoxazin-2(1H)-one] was tested, and the IC50 was 1000 to 10000 nM. `Cc1noc(C)c1-c1cc(F)c2nc(N3CCC(O)C3)n3c2c1OCC3c1cccnc1` (centres unmarked) [Example 157, 1-[7-(3,5-Dimethylisoxazol-4-yl)-9-fluoro-4-pyridin-3-yl-4,5-dihydroimidazo[1,5,4-de][1,4]benzoxazin-2-yl]pyrrolidin-3-ol] showed an IC50 of under 1000 nM. Work on `Cc1noc(C)c1-c1ccc2nc(N3CCC(O)CC3)n3c2c1OCC3c1ccccc1` (centres unmarked) [Example 57, 1-[7-(3,5-Dimethylisoxazol-4-yl)-4-phenyl-4,5-dihydroimidazo[1,5,4-de][1,4]benzoxazin-2-yl]piperidin-4-ol] yielded an IC50 of under 1000 nM. Work on `CNC(=O)C1CCN(c2nc3ccc(-c4c(C)noc4C)c4c3n2[C@@H](c2ccccn2)CO4)CC1` [Example 189, 1-[(4S)-7-(3,5-dimethylisoxazol-4-yl)-4-pyridin-2-yl-4,5-dihydroimidazo[1,5,4-de][1,4]benzoxazin-2-yl]-N-methylpiperidine-4-carboxamide] yielded an IC50 of under 1000 nM. With `Cc1noc(C)c1-c1cc(CO)c2[nH]c(=O)n3c2c1OCC3c1ccccn1` (centres unmarked) [Example 254, 7-(3,5-Dimethylisoxazol-4-yl)-9-(hydroxymethyl)-4-pyridin-2-yl-4,5-dihydroimidazo[1,5,4-de][1,4]benzoxazin-2(1H)-one] the IC50 was under 1000 nM. `Cc1noc(C)c1-c1ccc2nc(C)n3c2c1OC[C@@H]3c1ccccn1` [Example 154, 7-(3,5-Dimethylisoxazol-4-yl)-2-methyl-4-pyridin-2-yl-4,5-dihydroimidazo[1,5,4-de][1,4]benzoxazine] showed an IC50 of under 1000 nM. With `CCS(=O)(=O)N1CCN(c2nc3ccc(-c4c(C)noc4C)c4c3n2[C@@H](c2ccccn2)CO4)CC1` [Example 226, (4S)-7-(3,5-dimethylisoxazol-4-yl)-2-[4-(ethylsulfonyl)piperazin-1-yl]-4-pyridin-2-yl-4,5-dihydroimidazo[1,5,4-de][1,4]benzoxazine] the IC50 was under 1000 nM. Molecule `CCS(=O)(=O)NC1CN(c2nc3ccc(-c4c(C)noc4C)c4c3n2[C@@H](c2ccccn2)CO4)C1` [Example 238, N-{1-[(4S)-7-(3,5-dimethylisoxazol-4-yl)-4-pyridin-2-yl-4,5-dihydroimidazo[1,5,4-de][1,4]benzoxazin-2-yl]azetidin-3-yl}ethanesulfonamide] has an IC50 of under 1000 nM. Molecule `Cc1noc(C)c1-c1ccc2nc(C(=O)OC(C)(C)C)n3c2c1OC[C@@H]3c1ccccn1` [Example 93, tert-Butyl (4S)-7-(3,5-dimethylisoxazol-4-yl)-4-pyridin-2-yl-4,5-dihydroimidazo[1,5,4-de][1,4]benzoxazine-2-carboxylate] has an IC50 of under 1000 nM. Work on `Cc1noc(C)c1-c1ccc2nc(C3=CCN(C(=O)OC(C)(C)C)CC3)n3c2c1OC[C@@H]3c1ccccn1` [Example 97, tert-Butyl 4-[(4S)-7-(3,5-dimethylisoxazol-4-yl)-4-pyridin-2-yl-4,5-dihydroimidazo[1,5,4-de][1,4]benzoxazin-2-yl]-3,6-dihydropyridine-1 (2H)-carboxylate] yielded an IC50 of under 1000 nM. In the case of `Cc1noc(C)c1-c1ccc2nc(N3CCC(N(C)C)CC3)n3c2c1OC[C@@H]3c1ccccn1` [Example 171, 1-[(4S)-7-(3,5-dimethylisoxazol-4-yl)-4-pyridin-2-yl-4,5-dihydroimidazo[1,5,4-de][1,4]benzoxazin-2-yl]-N,N-dimethylpiperidin-4-amine], the IC50 is reported as under 1000 nM. `COCC(=O)N[C@@H]1CCN(c2nc3ccc(-c4c(C)noc4C)c4c3n2[C@@H](c2ccccn2)CO4)C1` [Example 205, N-{(3R)-1-[(4S)-7-(3,5-dimethylisoxazol-4-yl)-4-pyridin-2-yl-4,5-dihydroimidazo[1,5,4-de][1,4]benzoxazin-2-yl]pyrrolidin-3-yl}-2-methoxyacetamide] showed an IC50 of under 1000 nM.

Same assay, conditions: Homo sapiens, KMS-12-BM, 72 h, 3 days, Cell Titer-GLO, read-out: KMS cellular IC50
Work on `Cc1noc(C)c1-c1ccc2[nH]c(=O)n3c2c1OC(C)(C)C3c1ccccn1` (single isomer, unassigned) [Example 61A, 7-(3,5-Dimethylisoxazol-4-yl)-5,5-dimethyl-4-pyridin-2-yl-4,5-dihydroimidazo[1,5,4-de][1,4]benzoxazin-2(1H)-one] yielded an IC50 of under 1000 nM. For `Cc1noc(C)c1-c1cc(C#N)c2[nH]c(=O)n3c2c1OCC3c1ccccn1` (centres unmarked) [Example 269A, 7-(3,5-dimethylisoxazol-4-yl)-2-oxo-4-pyridin-2-yl-1,2,4,5-tetrahydroimidazo[1,5,4-de][1,4]benzoxazine-9-carbonitrile], the IC50 was under 1000 nM.
